In ChEMBL document CHEMBL1153650, “Imidazole and triazole substituted ether phospholipids: potent antitumor agents” (Bioorg Med Chem Lett, 1997):

Columns and labels:
Type in all cases: functional, cell-based
HT-29 = test: In vitro inhibition of the HT-29 transformed human colon cell proliferation
HL-60 = test: In vitro inhibition of HL-60 human promyelocytic leukemia cell proliferation
FHC = test: In vitro inhibition of FHC normal human colon cell proliferation
MCF7 = test: In vitro inhibition of estrogen receptor positive MCF-7 human breast cancer cell proliferation
MDA-MB-231 = test: In vitro inhibition of estrogen receptor negative MDA-MB-231 human breast cancer cell proliferation

SMILES | IC50 (HT-29) [nM] | IC50 (HL-60) [nM] | IC50 (FHC) [nM] | IC50 (MCF7) [nM] | IC50 (MDA-MB-231) [nM]
CCCCCCCCCCCCCCCCCCOCC(CCP(=O)([O-])OCC[N+](C)(C)C)n1ccnc1 (configuration not stated) | 2000 | 2000 | 5000 | 3000 | 4500
CCCCCCCCCCCCCCCCCCOCC(COP(=O)([O-])OCC[N+](C)(C)C)OC (configuration not stated) [EDELFOSINE] | 2000 | 2000 | 45000 |  | 5000
CCCCCCCCCCCCCCCCCCOCC(CCP(=O)([O-])OCC[N+](C)(C)C)n1cncn1 (configuration not stated) |  | 3000 |  | 3000 | 6000
